Assay results from patent US9096599B2, “Spiroindoline compounds” (Intervet Inc., priority 2011, dated 2015).
Read-outs that look alike come from different tables or passages of the source.

System: Ascaridia galli (L3) and Oesophagostumum dentatum (L3 and L4) larvae
Assay: In vitro anthelmintic larval test, minimum effective concentration by microscopic examination
Type: cell-based
Conditions: read-out: minimum effective concentration (MEC)
Description: C: Biological Examples Efficacy Against Ascaridia galli and Oesophagostomum dentatum
Anthelmintic effects of compounds of this invention (numbers refer to compound numbers in Table I) were tested in vitro using gut-welling larval stages of two parasitic nematode species: Ascaridia galli (intestinal roundworm of chicken), larval stage 3 (“L3”); and Oesophagostumum dentatum (nodular worm of swine), larval stages 3 and 4 (respectively “L3” and “L4”). When conducting these experiments, DMSO-solutions of various concentrations of compounds of this invention were prepared and incubated in 96-well microtiter plates. The parasites were then distributed at 20 larvae per well. The anthelmintic effects were classified by microscopic examination. The microscopic examination included assessing mortality, damage, motility, progression of development, and neutral red uptake by the larvae in comparison to a DMSO-control.

[1] = activity against one or both of the nematodes (A. galli L3; O. dentatum L3, L4), 96-well plates, 20 larvae per well, vs DMSO-control

SMILES	minimal effective concentration [1] [µM]	minimal effective concentration [µM]
Cc1ccc(/C=C/CN2CCC3(CC2)CN(C(=O)c2ccnc(Cl)c2)c2ccc(Sc4ccc(F)cc4)cc23)c(C)c1 [Compound 20, (2-chloro-4-pyridyl)-[1′-[(E)-3-(2,4-dimethylphenyl)allyl]-5-(4-fluorophenyl)sulfanyl-spiro[indoline-3,4′-piperidine]-1-yl]methanone]	≤ 50	
O=C(c1ccnc(Cl)c1)N1CC2(CCN(C/C=C/c3ccc(Cl)c(Cl)c3)CC2)c2cc(Sc3ccc(F)cc3)ccc21 [Compound 23, (2-chloro-4-pyridyl)-[1′-[(E)-3-(3,4-dichlorophenyl)allyl]-5-(4-fluorophenyl)sulfanyl-spiro[indoline-3,4′-piperidine]-1-yl]methanone]	≤ 50	
O=C(c1ccnc(Cl)c1)N1CC2(CCN(C/C=C/c3ccccc3)CC2)c2cc(Sc3ccc(F)cc3)ccc21 [Compound 11, (2-chloro-4-pyridyl)-[1′-[(E)-cinnamyl]-5-(4-fluorophenyl)sulfanyl-spiro[indoline-3,4′-piperidine]-1-yl]methanone]		≤ 50
Cc1ccc(/C=C/CN2CCC3(CC2)CN(C(=O)c2ccnc(C)c2)c2ccc(Sc4ccc(F)cc4)cc23)cc1 [Compound 19, [5-(4-fluorophenyl)sulfanyl-1′-[(E)-3-(p-tolyl)allyl]spiro[indoline-3,4′-piperidine]-1-yl]-(2-methyl-4-pyridyl)methanone]	≤ 50	
